Reference: US20240208956A1, “1,3,4-OXADIAZOLE THIOCARBONYL COMPOUNDS AS HISTONE DEACETYLASE 6 INHIBITOR, AND PHARMACEUTICAL COMPOSITION COMPRISING THE SAME” (CHONG KUN DANG PHARMACEUTICAL CORP., priority 2021, published 2024)
pIC50: −log10 of the molar value.

How the values were obtained:
[1] = target: HDAC6 human recombinant (Homo sapiens (Human), UniProt Q9UBN7); experiment: HDAC enzyme activity inhibition (in vitro), HDAC6 fluorimetric assay; type: biochemical; conditions: samples at 0.1-1000 nM; 37° C. 60 minutes; fluorescence Ex 390 nm, Em 460 nm
Sequence of HDAC6 human recombinant (Q9UBN7 whole entry): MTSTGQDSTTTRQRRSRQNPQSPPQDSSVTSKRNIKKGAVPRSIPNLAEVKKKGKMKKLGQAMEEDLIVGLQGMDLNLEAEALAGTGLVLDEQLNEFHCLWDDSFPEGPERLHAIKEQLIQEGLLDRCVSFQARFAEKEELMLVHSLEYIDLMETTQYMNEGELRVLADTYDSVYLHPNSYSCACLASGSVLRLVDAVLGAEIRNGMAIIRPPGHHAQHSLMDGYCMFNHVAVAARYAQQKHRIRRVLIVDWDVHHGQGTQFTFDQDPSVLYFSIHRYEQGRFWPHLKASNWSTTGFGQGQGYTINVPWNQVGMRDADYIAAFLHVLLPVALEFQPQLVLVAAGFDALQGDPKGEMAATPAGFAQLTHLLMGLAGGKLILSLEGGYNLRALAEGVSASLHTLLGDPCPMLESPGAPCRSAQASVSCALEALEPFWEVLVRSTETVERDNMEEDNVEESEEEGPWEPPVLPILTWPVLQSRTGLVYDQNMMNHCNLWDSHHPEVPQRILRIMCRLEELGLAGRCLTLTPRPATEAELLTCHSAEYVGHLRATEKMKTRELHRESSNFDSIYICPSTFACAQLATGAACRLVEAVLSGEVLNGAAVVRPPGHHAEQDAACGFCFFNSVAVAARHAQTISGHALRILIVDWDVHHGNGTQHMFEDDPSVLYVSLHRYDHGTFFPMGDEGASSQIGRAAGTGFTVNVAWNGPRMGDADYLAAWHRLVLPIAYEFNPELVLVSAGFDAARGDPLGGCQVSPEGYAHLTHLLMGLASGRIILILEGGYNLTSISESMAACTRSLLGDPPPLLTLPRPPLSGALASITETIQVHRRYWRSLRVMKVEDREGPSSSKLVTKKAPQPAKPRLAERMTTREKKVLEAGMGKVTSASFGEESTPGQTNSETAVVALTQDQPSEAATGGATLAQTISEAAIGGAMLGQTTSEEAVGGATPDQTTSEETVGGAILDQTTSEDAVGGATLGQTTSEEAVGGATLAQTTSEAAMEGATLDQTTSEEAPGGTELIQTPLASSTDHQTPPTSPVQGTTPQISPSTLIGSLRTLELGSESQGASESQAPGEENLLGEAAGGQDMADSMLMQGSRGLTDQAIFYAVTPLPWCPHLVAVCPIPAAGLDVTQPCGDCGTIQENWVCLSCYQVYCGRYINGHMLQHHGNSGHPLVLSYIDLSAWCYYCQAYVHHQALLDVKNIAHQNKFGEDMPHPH
Method: Confirmation of HDAC Enzyme Activity Inhibition (In Vitro)
(§1) An HDAC enzyme inhibitory capacity of test material was measured by using HDAC1 Fluorimetric Drug Discovery Assay Kit (Enzolifesciences: BML-AK511) and HDAC6 human recombinant (Calbiochem: 382180). For a HDAC1 assay, samples were treated at a concentration of 100 nM, 1000 nM and 10000 nM. For an HDAC6 assay, samples were treated at a concentration of 0.1 nM, 1 nM, 10 nM, 100 nM and 1000 nM. After the sample treatment, a reaction was continued at 37° C. for 60 minutes, treated with a developer, and subjected to reaction at 37° C. for 30 minutes, after which fluorescence intensity (Ex 390 nm, Em 460 nm) was measured by using FlexStation3 (Molecular device). For final result values, each […] value was calculated with GraphPad Prism 4.0 program.

[2] = target: HDAC1 (Homo sapiens (Human), UniProt Q13547); experiment: HDAC enzyme activity inhibition (in vitro), HDAC1 Fluorimetric Drug Discovery Assay Kit; type: biochemical; conditions: samples at 100, 1000 and 10000 nM; 37° C. 60 minutes; fluorescence Ex 390 nm, Em 460 nm
Sequence of HDAC1 (Q13547 whole entry): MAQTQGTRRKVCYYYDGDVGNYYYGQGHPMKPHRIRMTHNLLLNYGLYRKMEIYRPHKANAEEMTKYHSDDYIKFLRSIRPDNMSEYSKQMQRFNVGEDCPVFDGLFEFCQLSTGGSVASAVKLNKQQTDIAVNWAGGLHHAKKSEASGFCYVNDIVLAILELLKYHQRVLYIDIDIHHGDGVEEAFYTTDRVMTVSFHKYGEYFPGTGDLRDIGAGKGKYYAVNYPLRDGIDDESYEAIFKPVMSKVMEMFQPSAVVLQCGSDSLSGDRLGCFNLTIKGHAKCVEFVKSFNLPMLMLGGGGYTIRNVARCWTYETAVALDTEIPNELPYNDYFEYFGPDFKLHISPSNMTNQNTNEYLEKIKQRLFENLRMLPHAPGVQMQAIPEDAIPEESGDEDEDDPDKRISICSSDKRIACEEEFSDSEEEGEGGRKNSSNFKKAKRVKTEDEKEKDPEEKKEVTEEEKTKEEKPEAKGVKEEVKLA
Method: Experimental Example 1. Confirmation of HDAC Enzyme Activity Inhibition (In Vitro)
as §1

Q: Which results are given for CN1CC2(C1)CN(C(=S)N(Cc1ccc(-c3nnc(C(F)F)o3)cc1)c1ccc(F)cc1)C2 [Compound 20, N-(4-(5-(difluoromethyl)-1,3,4-oxadiazol-2-yl)benzyl)-N-(4-fluorophenyl)-6-methyl-2,6-diazaspiro[3.3]heptan-2-carbothioamide]?
A: pIC50 [1]: 7.22; pIC50 [2]: < 5.00

Q: With CC(C)N1CC2(CN(C(=S)N(Cc3ccc(-c4nnc(C(F)F)o4)cc3)c3ccc(F)cc3)C2)C1 [Compound 21, N-(4-(5-(difluoromethyl)-1,3,4-oxadiazol-2-yl)benzyl)-N-(4-fluorophenyl)-6-isopropyl-2,6-diazaspiro[3.3]heptan-2-carbothioamide] as the compound, how does the pIC50 [1] read?
A: Its pIC50 is 7.15.

Q: What about the pIC50 [2] of the same compound?
A: Its pIC50 is < 5.00.

Q: Which results are given for Fc1ccc(N(Cc2ccc(-c3nnc(C(F)F)o3)cc2)C(=S)N2CC3(C2)CN(C2COC2)C3)cc1 [Compound 22, N-(4-(5-(difluoromethyl)-1,3,4-oxadiazol-2-yl)benzyl)-N-(4-fluorophenyl)-6-(oxetan-3-yl)-2,6-diazaspiro[3.3]heptan-2-carbothioamide]?
A: pIC50 [1]: 7.08; pIC50 [2]: < 5.00

Q: With CN1CC2(C1)CN(C(=S)N(Cc1ccc(-c3nnc(C(F)F)o3)cc1F)c1ccc(Cl)c(Cl)c1)C2 [Compound 23, N-(3,4-dichlorophenyl)-N-(4-(5-(difluoromethyl)-1,3,4-oxadiazol-2-yl)-2-fluorobenzyl)-6-methyl-2,6-diazaspiro[3.3]heptan-2-carbothioamide] as the compound, how does the pIC50 [1] read?
A: The pIC50 was 7.21.

Q: And the pIC50 [2]?
A: Its pIC50 is < 5.00.

Q: Fc1cc(-c2nnc(C(F)F)o2)ccc1CN(C(=S)N1CC2(C1)CN(C1COC1)C2)c1ccc(Cl)c(Cl)c1 [Compound 24, N-(3,4-dichlorophenyl)-N-(4-(5-(difluoromethyl)-1,3,4-oxadiazol-2-yl)-2-fluorobenzyl)-6-(oxetan-3-yl)-2,6-diazaspiro[3.3]heptan-2-carbothioamide] was tested. Which pIC50 [1] did it give?
A: Its pIC50 is 7.08.

Q: And the pIC50 [2]?
A: The pIC50 was < 5.00.

Q: CN1CC2(C1)CN(C(=S)N(Cc1ccc(-c3nnc(C(F)F)o3)cc1F)c1ccc(F)c(Cl)c1)C2 [Compound 25, N-(3-chloro-4-fluorophenyl)-N-(4-(5-(difluoromethyl)-1,3,4-oxadiazol-2-yl)-2-fluorobenzyl)-6-methyl-2,6-diazaspiro[3.3]heptan-2-carbothioamide] was tested. Which pIC50 [1] did it give?
A: The pIC50 was 7.34.

Q: What about the pIC50 [2] of the same compound?
A: Its pIC50 is < 5.00.

Q: Which results are given for CN1CC2(C1)CN(C(=S)N(Cc1ccc(-c3nnc(C(F)F)o3)cc1)c1ccc(F)c(Cl)c1)C2 [Compound 26, N-(3-chloro-4-fluorophenyl)-N-(4-(5-(difluoromethyl)-1,3,4-oxadiazol-2-yl)benzyl)-6-methyl-2,6-diazaspiro[3.3]heptan-2-carbothioamide]?
A: pIC50 [1]: 7.05; pIC50 [2]: < 5.00

Q: With Fc1ccc(N(Cc2ccc(-c3nnc(C(F)F)o3)cc2)C(=S)N2CC3(C2)CN(C2COC2)C3)cc1Cl [Compound 27, N-(3-chloro-4-fluorophenyl)-N-(4-(5-(difluoromethyl)-1,3,4-oxadiazol-2-yl)benzyl)-6-(oxetan-3-yl)-2,6-diazaspiro[3.3]heptan-2-carbothioamide] as the compound, how does the pIC50 [1] read?
A: The pIC50 was 6.95.

Q: And the pIC50 [2]?
A: Its pIC50 is < 5.00.

Q: CC(C)N1CC2(CN(C(=S)N(Cc3ccc(-c4nnc(C(F)F)o4)cc3F)c3ccc(F)c(Cl)c3)C2)C1 [Compound 28, N-(3-chloro-4-fluorophenyl)-N-(4-(5-(difluoromethyl)-1,3,4-oxadiazol-2-yl)-2-fluorobenzyl)-6-isopropyl-2,6-diazaspiro[3.3]heptan-2-carbothioamide] was tested. Which pIC50 [1] did it give?
A: Its pIC50 is 7.11.

Q: What about the pIC50 [2] of the same compound?
A: Its pIC50 is < 5.00.

Q: How did the pIC50 [1] turn out when CC(C)N1CC2(CN(C(=S)N(Cc3ccc(-c4nnc(C(F)F)o4)cc3)c3ccc(F)c(Cl)c3)C2)C1 [Compound 29, N-(3-chloro-4-fluorophenyl)-N-(4-(5-(difluoromethyl)-1,3,4-oxadiazol-2-yl)benzyl)-6-isopropyl-2,6-diazaspiro[3.3]heptan-2-carbothioamide] was run?
A: Its pIC50 is 7.15.

Q: What about the pIC50 [2] of the same compound?
A: Its pIC50 is < 5.00.

Q: With CN1CC2(C1)CN(C(=S)N(Cc1ccc(-c3nnc(C(F)F)o3)cc1)c1ccc(F)c(F)c1)C2 [Compound 30, N-(4-(5-(difluoromethyl)-1,3,4-oxadiazol-2-yl)benzyl)-N-(3,4-difluorophenyl)-6-methyl-2,6-diazaspiro[3.3]heptan-2-carbothioamide] as the compound, how does the pIC50 [1] read?
A: Its pIC50 is 7.62.

Q: What about the pIC50 [2] of the same compound?
A: Its pIC50 is < 5.00.

Q: How did the pIC50 [1] turn out when CC(C)N1CC2(CN(C(=S)N(Cc3ccc(-c4nnc(C(F)F)o4)cc3)c3ccc(F)c(F)c3)C2)C1 [Compound 31, N-(4-(5-(difluoromethyl)-1,3,4-oxadiazol-2-yl)benzyl)-N-(3,4-difluorophenyl)-6-isopropyl-2,6-diazaspiro[3.3]heptan-2-carbothioamide] was run?
A: Its pIC50 is 7.46.

Q: And the pIC50 [2]?
A: The pIC50 was < 5.00.

Q: With Fc1ccc(N(Cc2ccc(-c3nnc(C(F)F)o3)cc2)C(=S)N2CC3(C2)CN(C2COC2)C3)cc1F [Compound 32, N-(4-(5-(difluoromethyl)-1,3,4-oxadiazol-2-yl)benzyl)-N-(3,4-difluorophenyl)-6-(oxetan-3-yl)-2,6-diazaspiro[3.3]heptan-2-carbothioamide] as the compound, how does the pIC50 [1] read?
A: The pIC50 was 7.35.

Q: And the pIC50 [2]?
A: The pIC50 was < 5.00.

Q: With CC(=O)N1CC2(C1)CN(C(=S)N(Cc1ccc(-c3nnc(C(F)F)o3)cc1F)c1ccc(F)c(F)c1)C2 [Compound 33, 6-acetyl-N-(4-(5-(difluoromethyl)-1,3,4-oxadiazol-2-yl)-2-fluorobenzyl)-N-(3,4-difluorophenyl)-2,6-diazaspiro[3.3]heptan-2-carbothioamide] as the compound, how does the pIC50 [1] read?
A: Its pIC50 is 7.46.

Q: What about the pIC50 [2] of the same compound?
A: The pIC50 was < 5.00.

Q: How did the pIC50 [1] turn out when Fc1ccc(N(Cc2ccc(-c3nnc(C(F)F)o3)cc2F)C(=S)N2CC3(C2)CN(C2COC2)C3)cc1F [Compound 34, N-(4-(5-(difluoromethyl)-1,3,4-oxadiazol-2-yl)-2-fluorobenzyl)-N-(3,4-difluorophenyl)-6-(oxetan-3-yl)-2,6-diazaspiro[3.3]heptan-2-carbothioamide] was run?
A: Its pIC50 is 7.33.

Q: What about the pIC50 [2] of the same compound?
A: The pIC50 was < 5.00.

Q: With CN1CC2(C1)CN(C(=S)N(Cc1ccc(-c3nnc(C(F)F)o3)cc1F)c1cccc(F)c1)C2 [Compound 36, N-(4-(5-(difluoromethyl)-1,3,4-oxadiazol-2-yl)-2-fluorobenzyl)-N-(3-fluorophenyl)-6-methyl-2,6-diazaspiro[3.3]heptan-2-carbothioamide] as the compound, how does the pIC50 [1] read?
A: The pIC50 was 7.37.

Q: And the pIC50 [2]?
A: The pIC50 was < 5.00.

Q: With CC(C)N1CC2(CN(C(=S)N(Cc3ccc(-c4nnc(C(F)F)o4)cc3F)c3cccc(F)c3)C2)C1 [Compound 37, N-(4-(5-(difluoromethyl)-1,3,4-oxadiazol-2-yl)-2-fluorobenzyl)-N-(3-fluorophenyl)-6-isopropyl-2,6-diazaspiro[3.3]heptan-2-carbothioamide] as the compound, how does the pIC50 [1] read?
A: Its pIC50 is 7.17.

Q: And the pIC50 [2]?
A: The pIC50 was < 5.00.

Q: Which results are given for Fc1cccc(N(Cc2ccc(-c3nnc(C(F)F)o3)cc2F)C(=S)N2CC3(C2)CN(C2COC2)C3)c1 [Compound 38, N-(4-(5-(difluoromethyl)-1,3,4-oxadiazol-2-yl)-2-fluorobenzyl)-N-(3-fluorophenyl)-6-(oxetan-3-yl)-2,6-diazaspiro[3.3]heptan-2-carbothioamide]?
A: pIC50 [1]: 7.29; pIC50 [2]: < 5.00

Q: How did the pIC50 [1] turn out when CN1C[C@@H]2C[C@H]1CN2C(=S)N(Cc1ccc(-c2nnc(C(F)F)o2)cc1F)c1ccc(F)cc1 [Compound 39, (1S,4S)—N-(4-(5-(difluoromethyl)-1,3,4-oxadiazol-2-yl)-2-fluorobenzyl)-N-(4-fluorophenyl)-5-methyl-2,5-diazabicyclo[2.2.1]heptan-2-carbothioamide] was run?
A: The pIC50 was 7.52.

Q: And the pIC50 [2]?
A: The pIC50 was < 5.00.

Q: CC(C)N1C[C@@H]2C[C@H]1CN2C(=S)N(Cc1ccc(-c2nnc(C(F)F)o2)cc1F)c1ccc(F)cc1 [Compound 40, (1S,4S)—N-(4-(5-(difluoromethyl)-1,3,4-oxadiazol-2-yl)-2-fluorobenzyl)-N-(4-fluorophenyl)-5-isopropyl-2,5-diazabicyclo[2.2.1]heptan-2-carbothioamide] was tested. Which pIC50 [1] did it give?
A: The pIC50 was 7.26.

Q: And the pIC50 [2]?
A: Its pIC50 is < 5.00.

Q: How did the pIC50 [1] turn out when Fc1ccc(N(Cc2ccc(-c3nnc(C(F)F)o3)cc2F)C(=S)N2C[C@@H]3C[C@H]2CN3C2COC2)cc1 [Compound 41, (1S,4S)—N-(4-(5-(difluoromethyl)-1,3,4-oxadiazol-2-yl)-2-fluorobenzyl)-N-(4-fluorophenyl)-5-(oxetan-3-yl)-2,5-diazabicyclo[2.2.1]heptan-2-carbothioamide] was run?
A: Its pIC50 is 7.14.

Q: What about the pIC50 [2] of the same compound?
A: Its pIC50 is < 5.00.

Q: How did the pIC50 [1] turn out when Fc1ccc(N(Cc2ccc(-c3nnc(C(F)F)o3)cc2F)C(=S)N2C[C@@H]3C[C@H]2CN3C2COC2)cc1F [Compound 43, (1S,4S)—N-(4-(5-(difluoromethyl)-1,3,4-oxadiazol-2-yl)-2-fluorobenzyl)-N-(3,4-difluorophenyl)-5-(oxetan-3-yl)-2,5-diazabicyclo[2.2.1]heptan-2-carbothioamide] was run?
A: The pIC50 was 7.11.

Q: And the pIC50 [2]?
A: The pIC50 was < 5.00.

Q: How did the pIC50 [1] turn out when CN1CC2(CCN(C(=S)N(Cc3ccc(-c4nnc(C(F)F)o4)cc3F)c3ccc(F)c(F)c3)CC2)C1 [Compound 44, N-(4-(5-(difluoromethyl)-1,3,4-oxadiazol-2-yl)-2-fluorobenzyl)-N-(3,4-difluorophenyl)-2-methyl-2,7-diazaspiro[3.5]nonan-7-carbothioamide] was run?
A: The pIC50 was 7.10.

Q: And the pIC50 [2]?
A: The pIC50 was < 5.00.

Q: What does the source list for Fc1ccc(N(Cc2ccc(-c3nnc(C(F)F)o3)cc2F)C(=S)N2CCC3(CC2)CN(C2COC2)C3)cc1F [Compound 45, N-(4-(5-(difluoromethyl)-1,3,4-oxadiazol-2-yl)-2-fluorobenzyl)-N-(3,4-difluorophenyl)-2-(oxetan-3-yl)-2,7-diazaspiro[3.5]nonan-7-carbothioamide]?
A: pIC50 [1]: 6.71; pIC50 [2]: < 5.00
